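Where inhibition never reached the appropriate level, the endpoint shown equals the highest concentration tested. Otherwise, values were interpolated linearly from a five-concentration, 48-hour dose response in 96-well plates. GI50 is the concentration that inhibits growth by half. Definition used: TGI = concentration required for complete inhibition of growth.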
What was measured:
Assay in all cases: NCI tumour cell line growth inhibition, 48 h
NCI-H23 lung = test system: NCI-H23 lung
U251 CNS = test system: U251 CNS
HL-60(TB) leukemia = test system: HL-60(TB) leukemia
SK-MEL-5 melanoma = test system: SK-MEL-5 melanoma
SNB-19 CNS = test system: SNB-19 CNS
A498 renal = test system: A498 renal
COLO 205 colon = test system: COLO 205 colon
LOX IMVI melanoma = test system: LOX IMVI melanoma
SK-MEL-2 melanoma = test system: SK-MEL-2 melanoma
SW-620 colon = test system: SW-620 colon
HOP-92 NSCLC = test system: HOP-92 NSCLC
KM12 colon = test system: KM12 colon
RPMI-8226 leukemia = test system: RPMI-8226 leukemia
HCT-15 colon = test system: HCT-15 colon
NCI-H522 lung = test system: NCI-H522 lung
RXF 393 renal = test system: RXF 393 renal
MDA-MB-435 = test system: MDA-MB-435
PC-3 prostate = test system: PC-3 prostate
SR leukemia = test system: SR leukemia

Row | Structure (SMILES) | TGI (NCI-H23 lung) | TGI (U251 CNS) | TGI (HL-60(TB) leukemia) | TGI (SK-MEL-5 melanoma) | TGI (SNB-19 CNS) | TGI (A498 renal) | TGI (COLO 205 colon) | TGI (LOX IMVI melanoma) | TGI (SK-MEL-2 melanoma) | TGI (SW-620 colon) | TGI (HOP-92 NSCLC) | TGI (KM12 colon) | TGI (RPMI-8226 leukemia) | TGI (HCT-15 colon) | TGI (NCI-H522 lung) | TGI (RXF 393 renal) | TGI (MDA-MB-435) | TGI (PC-3 prostate) | TGI (SR leukemia) | GI50 (HOP-92 NSCLC)
1 | c1cc2nnsc2s1 | > 100 µM | > 100 µM | > 100 µM | > 100 µM | > 100 µM | > 100 µM | > 100 µM | > 100 µM | > 100 µM | > 100 µM | > 100 µM | > 100 µM | > 100 µM | > 100 µM | > 100 µM | – | – | – | – | –
2 | CC(=O)Nc1ccc(-c2nnc(SCC(=O)Nc3cccc(Cl)c3)o2)cc1 | 23 µM | 23.2 µM | 60.4 µM | 29.1 µM | 39.4 µM | 34 µM | 31 µM | 26.8 µM | 70.4 µM | 28 µM | – | 30.8 µM | > 100 µM | > 100 µM | 23.5 µM | 31.4 µM | – | – | – | –
3 | O=C(O)CC(NC(=O)/C(=C/c1ccccc1)NC(=O)c1ccccc1)C(=O)O (configuration not stated) | > 100 µM | > 100 µM | > 100 µM | > 100 µM | > 100 µM | > 100 µM | > 100 µM | > 100 µM | > 100 µM | > 100 µM | > 100 µM | > 100 µM | > 100 µM | > 100 µM | > 100 µM | > 100 µM | > 100 µM | > 100 µM | – | –
4 | CCCCN1C(=O)c2c(Br)sc(Br)c2C1=O | > 100 µM | > 100 µM | – | > 100 µM | > 100 µM | > 100 µM | 39.1 µM | > 100 µM | > 100 µM | 66.2 µM | – | 87.5 µM | > 100 µM | > 100 µM | > 100 µM | > 100 µM | > 100 µM | > 100 µM | 85.6 µM | –
5 | O=C(NCCC1CN(C(=O)OCc2ccccc2)c2ccccc21)OCc1ccccc1 (configuration not stated) | > 100 µM | > 100 µM | – | > 100 µM | > 100 µM | > 100 µM | > 100 µM | – | > 100 µM | > 100 µM | > 100 µM | > 100 µM | > 100 µM | > 100 µM | > 100 µM | > 100 µM | > 100 µM | > 100 µM | – | –
6 | CC1C2CC(CC2(C)O)C1(C)C (configuration not stated) | > 100 µM | > 100 µM | > 100 µM | > 100 µM | > 100 µM | > 100 µM | > 100 µM | – | – | > 100 µM | > 100 µM | > 100 µM | – | – | > 100 µM | > 100 µM | – | > 100 µM | > 100 µM | –
7 | CC(c1ccc2c(c1)CCC1C2CC2OC23CC=CC(=O)[C@]13C)C1C[C@]2(C)O[C@]2(C)[C@H](O)O1 (some centres not stated) | 25.2 µM | 55.3 µM | 71.9 µM | 28.1 µM | > 100 µM | – | > 100 µM | > 100 µM | > 100 µM | > 100 µM | > 100 µM | > 100 µM | > 100 µM | > 100 µM | > 100 µM | 50.5 µM | – | – | 53.6 µM | –
8 | CC[C@]12C=CCN3CCC4(c5cc([C@@]6(C(=O)OC)CC7CN(CCc8c6[nH]c6ccccc86)C[C@@H]6CCCC[C@H]76)c(OC)cc5N(C)C4[C@](O)(C(=O)OC)C1OC(C)=O)[C@@H]32 (some centres not stated) | < 0.01 µM | < 0.01 µM | – | < 0.01 µM | 18.1 µM | – | < 0.01 µM | 12.4 µM | 7.85 µM | 16 µM | 16.9 µM | – | 32.1 µM | 12.5 µM | < 0.01 µM | – | – | < 0.01 µM | – | 67.2 nM
9 | CN(C)C=Nc1c2ccccc2nc2ccccc12 | 15.8 µM | 15 µM | 18.2 µM | 12.5 µM | 17.9 µM | 21 µM | 8.87 µM | 7.13 µM | 9.26 µM | – | 22.3 µM | – | 6.88 µM | 32.8 µM | 4.99 µM | 16.4 µM | 15.1 µM | 14.5 µM | – | –
10 | COc1ccc2[nH]c3c(c2c1)CC(=O)N1CCCC(CC3O)C1 (configuration not stated) | > 100 µM | > 100 µM | – | > 100 µM | > 100 µM | > 100 µM | > 100 µM | > 100 µM | > 100 µM | > 100 µM | > 100 µM | > 100 µM | > 100 µM | > 100 µM | > 100 µM | – | > 100 µM | > 100 µM | – | –
11 | COc1ccc(N2C(=O)C3c4[nH]c5ccccc5c4C4CC(C)(C)CC(C)(C)C4C3C2=O)cc1 (configuration not stated) | 33.9 µM | 31.2 µM | > 100 µM | 41.3 µM | 52.7 µM | 30.1 µM | 34.8 µM | – | – | 71.7 µM | 28.7 µM | – | > 100 µM | > 100 µM | 38.1 µM | 33.1 µM | – | – | 25.7 µM | –
12 | Cc1ccc(Cc2nn(C)c(=O)n2N)cc1 | > 100 µM | > 100 µM | – | > 100 µM | > 100 µM | > 100 µM | > 100 µM | > 100 µM | > 100 µM | > 100 µM | > 100 µM | > 100 µM | > 100 µM | > 100 µM | – | – | > 100 µM | > 100 µM | – | –
13 | O=C(Cc1ccccc1)NN1C(=O)/C(=C\c2cccc([N+](=O)[O-])c2)SC1=Nc1ccccc1 | > 100 µM | > 100 µM | – | > 100 µM | > 100 µM | > 100 µM | > 100 µM | – | > 100 µM | > 100 µM | > 100 µM | > 100 µM | > 100 µM | > 100 µM | – | > 100 µM | > 100 µM | – | – | –
14 | COc1ccccc1C(=O)NO | > 100 µM | > 100 µM | > 100 µM | > 100 µM | > 100 µM | – | > 100 µM | > 100 µM | > 100 µM | > 100 µM | – | > 100 µM | > 100 µM | > 100 µM | > 100 µM | > 100 µM | > 100 µM | > 100 µM | > 100 µM | –
15 | O=[N+]([O-])c1ccc(N/N=C2/CC3=C2CCCCCCCCCC3)c([N+](=O)[O-])c1 | > 100 µM | > 100 µM | – | > 100 µM | > 100 µM | > 100 µM | > 100 µM | – | > 100 µM | > 100 µM | – | > 100 µM | > 100 µM | > 100 µM | > 100 µM | > 100 µM | > 100 µM | > 100 µM | – | –
